Literature values in PMC3005221 (Biochemistry, 2010).

Molecular target: HDAC6 BUZ domain
Settings: read-out: KD for HDAC6 BUZ domain (reported); full-length ubiquitin

Kd: 60 nM
Substance: ubiquitin
